Patent US7728036B2, “Methods for delivery of catecholic butanes for treatment of tumors” (priority 2003, dated 2010)

Assay: Maximal tolerable dose study in beagle dogs, clinical observations
Type: in vivo
Details: over four hours
Procedure: Thus the M4N-DMSO group animals were administered with M4N-DMSO with eight intravenous injections via the non-VAP jugular vein every 30 minutes over a 4-hour period. This frequency of delivery mimicked the delivery of the test article using the infusion pump.
Animals from the CET group were observed during the entire infusion period and for at least one hour following end of infusion. The dogs in the DMSO group were observed throughout the jugular vein injection period and for at least one hour following the last (eighth) injection.

COc1ccc(C[C@@H](C)[C@@H](C)Cc2ccc(OC)c(OC)c2)cc1OC [M4N, meso-1,4-bis(3,4-dimethoxyphenyl)-2,3-dimethylbutane]
Dose safely administered by intravenous infusion (CET vehicle): up to 10 mg/kg
Dose safely administered intravenously (DMSO vehicle): up to 100 mg/kg
